# Experiment: RP, Agilent ZORBAX Eclipse Plus C18, 50 × 4.6 mm, 1.8 µm, 0.5 mL/min, estimated dead time 1.1 min; A: water + 0.1% formic acid; B: acetonitrile + 0.1% formic acid; gradient (min/%B) 0/10 3/10 25/100 28/100
# Conditions: stereoisomer not certain
row,SMILES,LC retention time [min]
1,CN(C)CCOC(c1ccccc1)c1ccccc1,9.81
2,O=c1[nH]c2c(c(=O)n1C1CCCCC1)CCC2,11.3
3,CCSC(=O)N(CC)C1CCCCC1,19.8
4,Nc1ccc(S(=O)(=O)Nc2ccccn2)cc1,5.27
5,O=NN1CCCCC1,6.57
6,NC(=O)N1c2ccccc2C=Cc2ccccc21,11.2
7,COC(=O)Nc1nc2ccc(Sc3ccccc3)cc2[nH]1,12.6
8,CC1=NNC(=O)N(N=Cc2cccnc2)C1,1.4
9,CCOC(=O)C(CCc1ccccc1)NC(C)C(=O)N1CCCC1C(=O)O (centres undefined),9.21
10,CCOP(=S)(Oc1ccc([N+](=O)[O-])cc1)c1ccccc1 (centres undefined),20
11,Cc1cc(C2CC2)nc(Nc2ccccc2)n1,14.3
12,CCOP(=S)(OCC)Oc1ccc(=O)n(-c2ccccc2)n1,16.1
13,CCC1OC(=O)C(C)C(OC2CC(C)(OC)C(O)C(C)O2)C(C)C(OC2OC(C)CC(N(C)C)C2O)C(C)(OC)CC(C)C(=O)C(C)C(O)C1(C)O (centres undefined),11.1
14,COP(=S)(OC)Oc1ccc([N+](=O)[O-])c(C)c1,17.2
15,C=C(C)C1Cc2c(ccc3c2OC2COc4cc(OC)c(OC)cc4C2C3=O)O1 (centres undefined),17.2
16,CCCOC(=O)NCCCN(C)C,2.3
17,CCNc1nc(NCC)nc(SC)n1,8.74
18,O=C1CCc2cccc3c2N1CC3,10.2
19,CCOP(=S)(OCC)Oc1ccc([N+](=O)[O-])cc1,18.5
20,COP(=S)(OC)Oc1ccc([N+](=O)[O-])cc1,16.3
21,Nc1ccc(S(=O)(=O)Nc2nccs2)cc1,5.2
22,CCCSc1ccc2nc(NC(=O)OC)[nH]c2c1,10.5
23,CNC(=O)Oc1cccc(C)c1,11
24,CCC(=O)C(CC(C)N(C)C)(c1ccccc1)c1ccccc1 (centres undefined),11.4

row,SMILES,LC retention time [min]
1,Nc1ccc(S(N)(=O)=O)cc1,1.82
2,CCCCN(CC)C(=O)SCCC,19.6
3,CCCN(CCC)c1c([N+](=O)[O-])cc(S(N)(=O)=O)cc1[N+](=O)[O-],17
4,CCCCCCCCCCCC[N+](C)(C)Cc1ccccc1,16.2
5,CCCCCCCCCCCCCCCC[N+](C)(C)Cc1ccccc1,20.6
6,Cc1cc(C)nc(Nc2ccccc2)n1,11.6
7,COP(=S)(OC)Oc1ccc(SC)c(C)c1,18.5
8,Cn1cnc2c1c(=O)[nH]c(=O)n2C,1.96
9,CCC(C)C(=O)OC1CCC=C2C=CC(C)C(CCC3CC(O)CC(=O)O3)C21 (centres undefined),15.7
10,CC(C)C1(C)N=C(c2nc3ccccc3cc2C(=O)O)NC1=O (centres undefined),11
11,COC(=O)c1ccccc1CS(=O)(=O)NC(=O)Nc1nc(OC)cc(OC)n1,14.2
12,CCNc1nc(NC(C)C(C)C)nc(SC)n1 (centres undefined),13.1
13,CCOc1ccc2c3c1OC1C(O)C=CC4C(C2)N(C)CCC341 (centres undefined),5.83
14,COC(=O)Nc1nc2ccccc2[nH]1,3.27
15,C#CC1(O)CCC2C3CCc4cc(O)ccc4C3CCC21C (centres undefined),14.3
16,c1coc(-c2nc3ccccc3[nH]2)c1,5.19
17,CSc1nc(NC2CC2)nc(NC(C)(C)C)n1,12.6
18,COP(=S)(OC)Oc1ccc(Sc2ccc(OP(=S)(OC)OC)cc2)cc1,21.2
19,CCC1OC(=O)C(C)C(OC2CC(C)(OC)C(O)C(C)O2)C(C)C(OC2OC(C)CC(N(C)C)C2O)C(C)(O)CC(C)C(=O)C(C)C(O)C1(C)O (centres undefined),9.73
20,CON(C(=O)c1cc(C)oc1C)C1CCCCC1,17.7
21,CCC(C)c1ccccc1OC(=O)NC (centres undefined),15
22,CCOP(=S)(OCC)OP(=S)(OCC)OCC,19.3
23,CNC(=O)ON=CC(C)(C)S(C)=O (centres undefined),2.7
24,COc1cc(NS(=O)(=O)c2ccc(N)cc2)nc(OC)n1,10.4

row,SMILES,LC retention time [min]
1,CCOP(=S)(OCC)Oc1cc(C)nc(C(C)C)n1,18.8
2,CC(C)Cc1ccc(C(C)C(=O)O)cc1 (centres undefined),16.6
3,CC(C)(C)NCC(O)COc1nsnc1N1CCOCC1 (centres undefined),6.87
4,CN1C2CCC1C(C(=O)O)C(OC(=O)c1ccccc1)C2 (centres undefined),6.61
5,CCOC(=O)CCN(SN(C)C(=O)Oc1cccc2c1OC(C)(C)C2)C(C)C,20.8
6,CN(C)C1C(=O)C(C(N)=O)=C(O)C2(O)C(=O)C3=C(O)c4c(O)cccc4C(C)(O)C3C(O)C12 (centres undefined),6.11
7,COP(=S)(OC)SCn1nnc2ccccc2c1=O,15.4
8,CNCC(O)c1cccc(O)c1 (centres undefined),1.36
9,Cc1c(N)c(=O)n(-c2ccccc2)n1C,2.39
10,CCCN(CC)CC1COC2(CCC(C(C)(C)C)CC2)O1 (centres undefined),12.5
11,CNC(C)Cc1ccccc1 (centres undefined),4.88
12,CC1=C(C(=O)Nc2ccccc2)SCCO1,13.1
13,CC12CCC(O)CC1CCC1C2CC(O)C2(C)C(C3=CC(=O)OC3)CCC12O (centres undefined),8.14
14,CNC(=O)Oc1ccccc1OC(C)C,11.9
15,CNC(=O)Oc1cccc2c1OC(C)(C)C2O (centres undefined),7.87
16,CCN(CC)N=O,15.9
17,Cc1nnc(-c2ccccc2)c(=O)n1N,7.57
18,CCOP(=O)(NC(C)C)Oc1ccc(SC)c(C)c1 (centres undefined),15.4
19,Cc1cc(NS(=O)(=O)c2ccc(N)cc2)no1,9.06
20,Cc1ncc([N+](=O)[O-])n1CCO,2.77
21,COC(=O)NS(=O)(=O)c1ccc(N)cc1,5.43
22,CCOc1ccc2c(c1)C(C)=CC(C)(C)N2,11.8
23,CCOC(=O)N(C)C(=O)CSP(=S)(OCC)OCC,17.8
24,c1ccc(Nc2ccccc2)cc1,17.2

row,SMILES,LC retention time [min]
1,Cc1onc(-c2ccccc2)c1C(=O)NC1C(=O)N2C1SC(C)(C)C2C(=O)O (centres undefined),12.8
2,CCNc1nc(NC(C)(C)C)nc(OC)n1,9.32
3,COC=C(C(=O)OC)c1ccccc1Oc1cc(Oc2ccccc2C#N)ncn1,15.8
4,CC(C)NCC(O)COc1cccc2[nH]ccc12 (centres undefined),5.55
5,CCC1CCCC(OC2CCC(N(C)C)C(C)O2)C(C)C(=O)C2=CC3C(C=CC4CC(OC5OC(C)C(OC)C(OC)C5OC)CC43)C2CC(=O)O1 (centres undefined),14.9
6,Cc1nc(N(C)C)nc(OC(=O)N(C)C)c1C,6.86
7,CNC(=O)CSP(=S)(OC)OC,9
8,CC1(C)SC2C(NC(=O)C(N)c3ccccc3)C(=O)N2C1C(=O)O (centres undefined),7.93
9,CCSC(=O)N1CCCCCC1,16
10,Nc1nc(N)nc(NC2CC2)n1,1.36
11,CCOc1ccc(NC(C)=O)cc1,9.38
12,CC(C)C1(C)N=C(c2ncccc2C(=O)O)NC1=O (centres undefined),16.5
13,CCOc1ccc(NC(=O)OC(C)C)cc1OCC,15.3
14,CCOP(=O)(SC(C)CC)N1CCSC1=O (centres undefined),12.7
15,CSc1nnc(C(C)(C)C)c(=O)n1N,11.5
16,Cn1c(=O)[nH]c(=O)c2[nH]cnc21,1.47
17,CCCN(CCC)C(=O)SCc1ccccc1,20.4
18,O=NN1CCCC1,2.66
19,CCNC(C)Cc1ccc2c(c1)OCO2 (centres undefined),6.16
20,COC(=O)Nc1nc2ccc(S(=O)c3ccccc3)cc2[nH]1 (centres undefined),8.64
21,O=NN1CCOCC1,2.21
22,Cc1ccc(C)c(OCCCC(C)(C)C(=O)O)c1,18.1
23,CNC(=O)ON=CC(C)(C)SC,10.2
24,CC(=O)OC1C=CC2C3Cc4ccc(O)c5c4C2(CCN3C)C1O5 (centres undefined),4.94

row,SMILES,LC retention time [min]
1,Nc1ccc(S(=O)(=O)Nc2ncccn2)cc1,4.16
2,CC(C)c1cc(Oc2ccccc2)cc(C(C)C)c1NC(=S)NC(C)(C)C,22.3
3,Cc1ccc(C(C)(C)C)c(O)c1C(=O)O,14.2
4,Cc1nnc(NS(=O)(=O)c2ccc(N)cc2)s1,7.12
5,CC12CCC3c4ccc(O)cc4CCC3C1CCC2=O (centres undefined),14.6
6,Cn1c(=O)c2c(ncn2C)n(C)c1=O,5.08
7,CNC(=O)Oc1cc(C)cc(C(C)C)c1,15
8,CCOc1cc(OP(=S)(OC)OC)nc(CC)n1,18.8
9,CCOC(=O)NCCOc1ccc(Oc2ccccc2)cc1,17
10,CN(C)C(=O)Nc1cccc(OC(=O)NC(C)(C)C)c1,11.6
11,Nc1ccc(-c2ccc(N)cc2)cc1,1.36
12,COc1cc(C2c3cc4c(cc3C(OC3OC5COC(C)OC5C(O)C3O)C3COC(=O)C23)OCO4)cc(OC)c1OP(=O)(O)O (centres undefined),16.1
13,CN(C(=O)COc1nc2ccccc2s1)c1ccccc1,16
14,Cc1cc(=O)n(-c2ccccc2)n1C,6.97
15,CCCCCc1cc(O)c2c(c1)OC(C)(C)C1CCC(C)=CC21 (centres undefined),23.6
16,COc1ccc2cc(C(C)C(=O)O)ccc2c1 (centres undefined),13.8
17,O=C(O)c1ccccc1C(=O)Nc1cccc2ccccc12,11.7
18,CNC(=O)ON=C(C)C(C)S(C)(=O)=O (centres undefined),4.36
19,CN1CCCC1c1cccnc1 (centres undefined),1.36
20,CC(N)Cc1ccc2c(c1)OCO2 (centres undefined),4.74
21,CN(C)c1ccc(C(c2ccccc2)c2ccc(N(C)C)cc2)cc1,12.6
22,CCOC(=O)C1CC(=O)C(=C(O)C2CC2)C(=O)C1 (centres undefined),14.2
23,CCC1OC(=O)CC(O)C(C)C(OC2OC(C)C(OC3CC(C)(O)C(O)C(C)O3)C(N(C)C)C2O)C(CC=O)CC(C)C(=O)C=CC(C)=CC1COC1OC(C)C(O)C(OC)C1OC (centres undefined),10.1

# Reference: the RepoRT retention time repository (doi:10.1016/j.chroma.2014.05.003)
